From article PMC9964023 (Marine Drugs, 2023)
pIC50: −log10 of the molar value. Bridge positions count the residues as written; N and C are the ends. Peptide text beside a SMILES is read from it.

Experiments:
Assay in all cases: biochemical
[1] = target: T1, norepinephrine transporter (NET) (Rattus norvegicus, UniProt Q63380); type: biochemical
T1 construct: brains were processed to yield synaptosomes as previously described; from tissue; host or cells: rat whole brain minus caudate and cerebellum, synaptosomes

[2] = target: T2, dopamine transporter (DAT) (Rattus norvegicus, UniProt P23977)
T2 construct: brains were processed to yield synaptosomes as previously described; from tissue; host or cells: rat caudate synaptosomes

[3] = target: T3, serotonin transporter (SERT) (Rattus norvegicus, UniProt P31652)
T3 construct: brains were processed to yield synaptosomes as previously described; from tissue; host or cells: rat whole brain minus caudate and cerebellum, synaptosomes
T3 sequence (P31652 whole entry): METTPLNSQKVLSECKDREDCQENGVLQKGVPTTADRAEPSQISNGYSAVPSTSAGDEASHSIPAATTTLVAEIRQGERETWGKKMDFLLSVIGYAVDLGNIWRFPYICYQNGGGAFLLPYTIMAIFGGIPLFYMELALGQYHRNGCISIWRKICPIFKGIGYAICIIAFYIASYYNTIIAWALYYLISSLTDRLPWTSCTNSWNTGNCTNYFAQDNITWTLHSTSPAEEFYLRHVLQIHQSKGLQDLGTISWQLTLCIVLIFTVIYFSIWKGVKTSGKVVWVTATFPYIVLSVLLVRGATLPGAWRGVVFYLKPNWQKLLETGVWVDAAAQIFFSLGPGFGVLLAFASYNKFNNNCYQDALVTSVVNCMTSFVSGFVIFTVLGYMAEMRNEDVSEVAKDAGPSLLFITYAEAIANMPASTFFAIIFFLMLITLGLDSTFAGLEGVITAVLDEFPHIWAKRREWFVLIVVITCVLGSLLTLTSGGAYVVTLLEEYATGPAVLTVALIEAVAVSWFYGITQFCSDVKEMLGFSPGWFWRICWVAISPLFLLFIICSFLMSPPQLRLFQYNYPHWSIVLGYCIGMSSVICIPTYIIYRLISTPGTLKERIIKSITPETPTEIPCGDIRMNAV

T1 sequence (Q63380 1-617): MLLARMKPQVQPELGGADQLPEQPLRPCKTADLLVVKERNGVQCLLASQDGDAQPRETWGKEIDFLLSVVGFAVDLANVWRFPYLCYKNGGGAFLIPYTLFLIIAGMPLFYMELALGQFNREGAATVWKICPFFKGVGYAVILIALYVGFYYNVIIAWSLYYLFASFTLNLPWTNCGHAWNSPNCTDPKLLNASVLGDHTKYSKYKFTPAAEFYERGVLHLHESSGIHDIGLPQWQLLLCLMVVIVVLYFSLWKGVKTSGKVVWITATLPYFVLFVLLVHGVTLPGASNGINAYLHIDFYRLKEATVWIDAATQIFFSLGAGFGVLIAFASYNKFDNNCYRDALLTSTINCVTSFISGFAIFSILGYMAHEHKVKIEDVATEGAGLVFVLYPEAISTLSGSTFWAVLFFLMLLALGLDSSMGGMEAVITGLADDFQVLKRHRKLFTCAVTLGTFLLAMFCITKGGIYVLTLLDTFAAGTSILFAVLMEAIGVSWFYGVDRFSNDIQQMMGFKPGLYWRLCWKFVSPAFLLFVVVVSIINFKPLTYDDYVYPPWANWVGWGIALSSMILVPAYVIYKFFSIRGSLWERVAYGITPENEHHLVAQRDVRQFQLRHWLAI
T2 sequence (P23977 whole entry): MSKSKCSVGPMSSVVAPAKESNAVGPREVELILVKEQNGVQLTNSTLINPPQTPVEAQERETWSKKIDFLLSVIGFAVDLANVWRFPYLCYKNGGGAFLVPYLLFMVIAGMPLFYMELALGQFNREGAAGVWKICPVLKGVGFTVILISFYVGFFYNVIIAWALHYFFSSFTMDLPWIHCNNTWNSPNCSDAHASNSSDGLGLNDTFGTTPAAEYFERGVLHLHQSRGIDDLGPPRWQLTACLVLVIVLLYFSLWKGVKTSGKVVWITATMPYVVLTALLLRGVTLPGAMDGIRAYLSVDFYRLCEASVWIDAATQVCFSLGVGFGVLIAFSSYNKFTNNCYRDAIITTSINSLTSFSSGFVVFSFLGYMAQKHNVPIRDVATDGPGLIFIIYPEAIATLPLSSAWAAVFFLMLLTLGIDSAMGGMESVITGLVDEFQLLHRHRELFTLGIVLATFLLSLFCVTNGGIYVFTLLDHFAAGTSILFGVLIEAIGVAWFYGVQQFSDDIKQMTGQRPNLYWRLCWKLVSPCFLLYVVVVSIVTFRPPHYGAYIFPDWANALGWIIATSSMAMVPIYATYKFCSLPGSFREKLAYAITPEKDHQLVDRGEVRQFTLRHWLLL

**Q.** With `CSCC[C@H](NC(=O)[C@H](CCCNC(=N)N)NC(=O)[C@H](Cc1ccc(O)cc1)NC(=O)CNC(=O)[C@@H]1CSSC[C@H](NC(=O)[C@@H](NC(=O)[C@@H](N)CO)[C@@H](C)O)C(=O)N1)C(=O)N[C@H]1CSSC[C@@H](C(N)=O)NC(=O)[C@@H]2CCCN2C(=O)[C@H](C(C)C)NC1=O` [PnID C] (H-STCCGYRMCVPC-NH2; disulfide 3-4, 9-12; N-terminus assumed) as the molecule, how does the pIC50 [1] read?
**A.** The pIC50 was under 4.00.

**Q.** And the “activity at NET relative to ribbon isomer (in words)” value [1]?
**A.** Its value is “much less active in inhibiting the rat NET”.

**Q.** And the “biological activity (in words)” value [1]?
**A.** Its value is “did not display any measurable biological activity”.

**Q.** And the pIC50 [2]?
**A.** The pIC50 was under 4.00.

**Q.** What about the pIC50 [3] of the same molecule?
**A.** The pIC50 was under 4.00.
